Data from the supplement of paper PMC10307832.

Compound: OCc1c[nH]c2ccccc12 [Indole-3-carbinol]
Experiment: relative viability (nuclei count vs DMSO), 5 days (fraction); higher = more cells survive
How it was run: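 In 1536-well plates, lung cancer cell lines rested overnight at 37 °C before five library-drug doses (not always all listed), √10 apart, were pinned onto vehicle-anchored plates. Nuclei were counted with MetaXpress from 4× Hoechst images taken after 5 days without medium change. Viability compares treated-well with vehicle-well nuclei as a median over plates, and plates needed control CV below 25% plus at least one doubling to pass.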

Cell Line	relative viability (0.253 µM)	relative viability (0.8 µM)	relative viability (2.53 µM)	relative viability (8 µM)
201T	1.05	0.976	0.953	0.986
A-427	0.96	0.95	0.982	0.97
ABC-1	0.816	0.995	1.12	0.955
BEN	0.941	0.998	1.03	0.91
CAL-12T	0.971	1.07	0.986	0.922
COR-L23	1.06	1.09	1.08	0.934
COR-L 105	0.964	0.845	0.958	0.844
ChaGo-K-1	0.965	0.99	0.893	1
EKVX	1.04	0.96	0.999	0.943
EMC-BAC-2	0.957	0.949	1.05	0.912
EPLC-272H	1.01	1.15	0.9	0.906
H3255	0.924	0.953	0.948	0.96
HARA	0.96	0.894	1.06	0.889
HCC-15	1.14	0.999	0.995	0.973
HCC-44	0.983	0.972	0.954	0.96
HCC-78	1.05	0.83	0.991	1.06
HCC-366	1.09	0.905	0.999	1.03
HCC-827	1.07	1.03	1.06	0.987
HOP-62	1.02	0.933	1.03	0.939
IA-LM	0.962	1.11	1.04	0.905
LC-2-ad	1.04	0.951	0.971	1.01
LCLC-97TM1	1.08	1.1	1.02	0.92
LCLC-103H	0.889	1.01	0.932	0.915
LK-2	0.929	0.872	1.02	1.05
LOU-NH91	0.957	0.933	0.95	1.04

Cell Line	relative viability (0.253 µM)	relative viability (0.8 µM)	relative viability (2.53 µM)	relative viability (8 µM)
LU99A	0.946	0.915	1.01	0.905
LXF-289	1.09	1.1	1	0.946
NCI-H23	1.04	1.08	1.05	0.925
NCI-H322M	0.84	0.973	0.859	0.866
NCI-H358	0.947	0.916	0.917	0.94
NCI-H441	1.1	1.28	1.15	1.11
NCI-H460	1.04	0.975	0.978	0.957
NCI-H520	0.925	0.848	1.05	0.902
NCI-H596	1.07	0.948	0.967	1
NCI-H647	1.06	0.703	1.1	0.948
NCI-H650	1	1.03	1.05	0.893
NCI-H661	0.957	0.904	1.03	0.988
NCI-H727	0.963	0.943	0.969	1.05
NCI-H838	1.01	0.935	0.98	0.935
NCI-H1355	1	1.11	0.97	0.961
NCI-H1395	0.945	0.92	0.929	0.881
NCI-H1437	1.01	1.01	0.992	0.945
NCI-H1563	1.02	0.883	1.09	0.908
NCI-H1650	1.03	0.794	0.943	0.882
NCI-H1651	0.994	0.97	1.05	0.945
NCI-H1666	0.998	1.04	0.961	0.998
NCI-H1703	0.962	0.908	1.05	0.904
NCI-H1734	0.997	0.866	0.973	0.932
NCI-H1755	1.05	0.997	0.993	0.929
NCI-H1792	0.88	0.833	0.811	0.984

Cell Line	relative viability (0.253 µM)	relative viability (0.8 µM)	relative viability (2.53 µM)	relative viability (8 µM)
NCI-H1793	0.943	0.841	1.04	0.906
NCI-H1915	1.01	1.01	0.956	0.976
NCI-H1944	0.971	0.793	0.955	0.962
NCI-H1975	1.04	0.93	1	0.897
NCI-H1993	1.06	1.07	0.872	0.919
NCI-H2009	1.05	1.03	1.01	0.951
NCI-H2023	0.952	0.963	0.984	0.935
NCI-H2085	1.01	1.03	1.03	0.949
NCI-H2087	1.18	1.11	1.01	0.896
NCI-H2126	0.986	1.01	0.997	0.957
NCI-H2170	0.999	1	0.929	0.955
NCI-H2228	1.09	0.84	1.19	0.999
NCI-H2342	1.08	0.907	1.01	1.02
NCI-H2347	1.08	1.07	1.09	0.961
NCI-H2405	1.06	1.01	1.06	1.03
NCI-H3122	1.07	0.986	1.02	0.983
PC-3 [JPC-3]	1.05	1.04	1.05	0.953
PC-14	1.04	0.948	1	0.953
RERF-LC-KJ	1.01	0.999	0.947	0.92
SK-LU-1	1.11	0.969	1.03	0.996
SK-MES-1	1.02	1.08	0.991	0.953
SW 900	0.922	0.772	0.903	0.764
SW 1573	0.954	1.08	1.12	0.949
UMC-11	0.977	1.03	0.966	0.983
